Columns and labels:
PIM-2 = PIM-2 (Homo sapiens, UniProt Q9P1W9); test: PIM-2 kinase ADP Hunter Plus assay; assay type: biochemical; conditions: 100 µM ATP
PIM-3 = PIM-3 (Homo sapiens, UniProt Q86V86); test: PIM-3 kinase ADP Hunter Plus assay; assay type: biochemical; conditions: 100 µM ATP, Figure 1
Experimental: Kinase activity was measured with the commercial ADP Hunter™ Plus assay (DiscoveRx Ref. #33-016), a homogeneous assay measuring ADP accumulation, as a universal product of kinase activity. The assay was conducted following the manufacturer’s recommendations and adapting the protein and substrate concentrations for optimal conditions. The kinase assay buffer was 15 mM HEPES, pH 7.4, 20 mM NaCl, 1 mM EGTA, 0.02% Tween-20, 10 mM MgCl2 and 0.1 mg/ml BGG (bovine γ-globulin). All PIM kinase assays were performed with 100 µM PIMtide ([…]) as the peptide substrate and 100 µM ATP. The protein concentrations were 50, 350 and 500 ng/µl for PIM-1, 2 and 3, respectively. To calculate the IC50 of the ETP-compounds, serial 1∶5 dilutions were prepared and the reaction was started with the addition of ATP. The reaction was incubated for 1 h at 25°C. Reagents A and B (DiscoveRx) were sequentially added to the wells, and the plates were incubated for 30 min at 37°C. Fluorescence counts were read in a Victor instrument (Perkin Elmer) with the recommended settings (544 and 580 nm as the excitation and emission wavelengths, respectively). Values were plotted against the inhibitor concentrations and fit to a sigmoid dose–response curve using GraphPad software.

Sequence of PIM-2 (Q9P1W9 whole entry): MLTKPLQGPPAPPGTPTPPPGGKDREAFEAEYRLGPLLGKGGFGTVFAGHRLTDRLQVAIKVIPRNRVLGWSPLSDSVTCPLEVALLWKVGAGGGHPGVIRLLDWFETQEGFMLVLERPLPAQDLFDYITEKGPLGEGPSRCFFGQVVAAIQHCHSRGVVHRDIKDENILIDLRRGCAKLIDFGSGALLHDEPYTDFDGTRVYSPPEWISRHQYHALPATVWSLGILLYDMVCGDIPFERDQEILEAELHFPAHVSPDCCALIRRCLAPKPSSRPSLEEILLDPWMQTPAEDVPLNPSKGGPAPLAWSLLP

`CC(=O)c1cccc(-c2cnc3ccc(NCC4CC4)nn23)c1` [Compound 2, reference compound] showed an IC50 (PIM-2) of 0.443 µM and an IC50 (PIM-3) of 1 µM.

Reference: paper PMC3480357, “Fragment-Hopping-Based Discovery of a Novel Chemical Series of Proto-Oncogene PIM-1 Kinase Inhibitors” (PLoS ONE, 2012)
